Source: patent publication US10501518B2 (priority 2013, dated 2019)
Starred links: 1 amine or outer side, 2 acyl side, 3 side chain; linkers in the order of their positions; H or OH if unused. Non-standard residues stand in square brackets, D forms with d. Residues, ends and D or L forms follow the SMILES beside them. *: point of attachment. NH(1S,2S-2-CONH2-cPent) = NC(=O)[C@H]1CCC[C@@H]1N*; X12 = O=C([C@H]1CCC[C@@H]1N[*:1])[*:2]; X13 = O=C([C@H]1CNC[C@@H]1N[*:1])[*:2]; ACPC(1S,2S) = N[C@H]1CCC[C@@H]1C(=O)*; hArg = N=C(N)NCCCC[C@H](N)C(=O)O; β3hE = N[C@@H](CCC(=O)O)CC(=O)O; β3hD = NC(CC(=O)O)CC(=O)O; Aib = CC(C)(N)C(=O)O

Target: T1, PTHR (Homo sapiens, UniProt Q03431)
T1 construct: expressed in transfected cells
T1 sequence (Q03431 27-593): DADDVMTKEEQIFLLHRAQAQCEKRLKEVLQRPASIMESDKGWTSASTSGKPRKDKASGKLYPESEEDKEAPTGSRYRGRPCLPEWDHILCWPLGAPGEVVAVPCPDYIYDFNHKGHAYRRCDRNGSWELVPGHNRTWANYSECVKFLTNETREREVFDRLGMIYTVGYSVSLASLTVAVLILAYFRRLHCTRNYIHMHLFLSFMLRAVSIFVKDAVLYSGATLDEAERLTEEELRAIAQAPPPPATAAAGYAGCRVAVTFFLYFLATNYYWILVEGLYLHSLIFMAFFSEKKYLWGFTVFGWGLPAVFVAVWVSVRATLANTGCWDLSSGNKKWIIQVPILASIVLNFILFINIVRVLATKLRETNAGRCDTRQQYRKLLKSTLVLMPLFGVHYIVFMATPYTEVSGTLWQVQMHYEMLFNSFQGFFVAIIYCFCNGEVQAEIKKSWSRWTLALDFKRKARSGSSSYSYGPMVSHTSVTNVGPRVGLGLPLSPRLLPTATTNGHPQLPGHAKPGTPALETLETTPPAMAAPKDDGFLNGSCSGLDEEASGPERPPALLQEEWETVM
Assay: cAMP induction potency, N-terminal modifications and cyclic constraints (Tables 9, 10, 13)
Type: cell-based
Conditions: Table 10
Method: For cAMP dose-response assays, monolayers of confluent HEK 293 cells were pre-incubated with buffer containing d-luciferin (0.5 mM) in 96 well plates at room temperature until a stable baseline level of luminescence was established (30 min). Varying concentrations of agonist were then added, and the time course of luminescence response was recorded using a Perkin Elmer plate reader following α/β-peptide addition.

Structure (SMILES)	Fold PTH
CC[C@H](C)[C@H](NC(=O)[C@H](CCC(=O)O)NC(=O)C(C)(C)NC(=O)[C@@H](NC(=O)[C@H]1CCC[C@@H]1N)C(C)C)C(=O)N[C@@H](CCC(N)=O)C(=O)N[C@H]1CCC[C@@H]1C(=O)N[C@@H](CCSC)C(=O)N[C@@H](Cc1c[nH]cn1)C(=O)N[C@@H](CCC(N)=O)C(=O)N[C@@H](CCCCNC(=N)N)C(=O)N[C@@H](C)C(=O)N[C@@H](CCCCN)C(=O)N[C@H]1CCC[C@@H]1C(=O)N[C@@H](CC(C)C)C(=O)N[C@@H](CC(N)=O)C(=O)N[C@@H](CO)C(=O)N[C@H]1CCC[C@@H]1C(=O)N[C@@H](CCCNC(=N)N)C(=O)N[C@@H](CCCNC(=N)N)C(=O)N[C@H](C(=O)N[C@H]1CNC[C@@H]1C(=O)N[C@@H](Cc1c[nH]c2ccccc12)C(=O)N[C@@H](CC(C)C)C(=O)N[C@@H](CCCNC(=N)N)C(=O)N[C@H]1CNC[C@@H]1C(=O)N[C@@H](CCCCN)C(=O)N[C@@H](CC(C)C)C(=O)N[C@@H](CCC(N)=O)C(=O)N[C@H]1CCC[C@@H]1C(=O)N[C@H](C(=O)N[C@@H](Cc1c[nH]cn1)C(=O)N[C@@H](CC(N)=O)C(=O)N[C@H]1CCC[C@@H]1C(N)=O)C(C)C)C(C)C [M-FcycD6_ACPC(1,7), XVUEIQXMHQ^hRAKXLNSXRRVZWLRZKLQXVHNX-NH2] ({ACPC(1S,2S)}-V[Aib]EIQ[X12]MHQ[hArg]AK[X12]LNS[X12]RRV[X13]WLR[X13]KLQ[X12]VHN-{NH(1S,2S-2-CONH2-cPent)}; N-terminus assumed)	21.8
CSCC[C@H](NC(=O)[C@H]1CCC[C@@H]1NC(=O)[C@H](CCC(N)=O)NC(=O)[C@H]1CCC[C@@H]1NC(=O)[C@H](CCC(=O)O)NC(=O)C(C)(C)NC(=O)[C@@H](NC(=O)[C@H]1CCC[C@@H]1N)C(C)C)C(=O)N[C@@H](Cc1c[nH]cn1)C(=O)N[C@@H](CCC(N)=O)C(=O)N[C@@H](CCCCNC(=N)N)C(=O)N[C@@H](C)C(=O)N[C@@H](CCCCN)C(=O)N[C@H]1CCC[C@@H]1C(=O)N[C@@H](CC(C)C)C(=O)N[C@@H](CC(N)=O)C(=O)N[C@@H](CO)C(=O)N[C@H]1CCC[C@@H]1C(=O)N[C@@H](CCCNC(=N)N)C(=O)N[C@@H](CCCNC(=N)N)C(=O)N[C@H](C(=O)N[C@@H](CCC(=O)O)CC(=O)N[C@@H](Cc1c[nH]c2ccccc12)C(=O)N[C@@H](CC(C)C)C(=O)N[C@@H](CCCNC(=N)N)C(=O)N[C@H]1CNC[C@@H]1C(=O)N[C@@H](CCCCN)C(=O)N[C@@H](CC(C)C)C(=O)N[C@@H](CCC(N)=O)C(=O)N[C@@H](CC(=O)O)CC(=O)N[C@H](C(=O)N[C@@H](Cc1c[nH]cn1)C(=O)N[C@@H](CC(N)=O)C(=O)N[C@H]1CCC[C@@H]1C(N)=O)C(C)C)C(C)C [M-X1,5,7-CycD6, HXVUEXQXMHQ^hRAKXLNSXRRVEWLRZKLQDVHNX-NH2] ({ACPC(1S,2S)}-V[Aib]E[X12]Q[X12]MHQ[hArg]AK[X12]LNS[X12]RRV[β3hE]WLR[X13]KLQ[β3hD]VHN-{NH(1S,2S-2-CONH2-cPent)}; N-terminus assumed)	3.8
